Here are results for 4 molecules from paper PMC11541501, “Development of a Candidate ^11C‑Labeled Selective Phosphodiesterase 1 Radioligand for Positron Emission Tomography” (ACS Omega, 2024).

In general, IC50 refers to the concentration needed to halve the response being measured. For orientation: logD means the decadic logarithm of the distribution of all forms, ionised or not, between an organic phase and buffer at a given pH. A higher logD goes with higher lipophilicity. What is called Ki is a measure of affinity in units of concentration, obtained from inhibition or displacement. For orientation: melting point means the temperature, or range, at which the solid turns liquid.

Like-named read-outs stand apart in the source and are kept apart here.

In data set [1] the test system is PDE1. The settings on record: cited from earlier work; for IC50: introduction, literature value.
Data set [2] relates to PDE1. The data set is described as follows: Dynamic PET imaging in rat brains. It is filed as in vivo, SD rats. How it is done:
Encouraged by the results of in vitro evaluation by autoradiography studies with the ligand [^11C]-PF-04822163, dynamic PET imaging studies were conducted with [^11C]-PF-04822163 on SD rats. […] Additionally, an evident washout was observed after initial high uptakes in all brain regions. To assess the in vivo binding specificity of [^11C]-PF-04822163 to PDE1, we carried out blocking studies with the pretreatment of unlabeled PF-04822163 (1 mg/kg, 10 min before the administration of [^11C]-PF-04822163). […] These findings indicate that further optimization of the pharmacological and ADME properties is warranted to obtain a suitable probe for in vivo imaging of PDE1.
4 PET studies of [^11C]-PF-04822163 in rat brains. […]
PET imaging was conducted as previously reported. , An Inveon PET scanner (Siemens) was used for dynamic PET imaging studies, [^11C]-PF-04822163 (ca. 17.5 MBq/1.5 mL) was intravenously injected via the tail vein via a preinstalled catheter, and dynamic PET images were acquired in a 3D mode for a period of 60 min. […] The dynamic PET images were reconstructed using ASIPro VW software, and volumes of interest were calculated.

Data set [3] is described as follows: Whole-body biodistribution study in mice. The class given is in vivo, ddY mice. Here is the method: To investigate the distribution of [^11C]-PF-04822163 in the whole body, we conducted a biodistribution study in ddY mice (Figure ). The radioactivity levels in major organs were assessed at 1, 5, 15, 30, and 60 min after the administration of [^11C]-PF-04822163. […] After the initial uptake, radioactivity accumulations decreased in almost all organs, while the uptake in the small intestine increased, and liver uptake remained at a high level (5% ID/g at 60 min), indicating a hepatobiliary elimination route.
The biodistribution experiment was performed according to previous reports. , In brief, [^11C]-PF-04822163 (4.44 MBq/0.1 mL) was injected (i.v.) into ddY mice via the tail vein. After the administration of [^11C]-PF-04822163, the mice were sacrificed at different time points (1, 5, 15, 30, and 60 min), and tissues of interest were collected. The tissues were weighted and measured by a gamma counter.

Data set [4] is described as follows: Radiometabolic analysis in rat brain and plasma. The class given is in vivo, SD rats. The conditions noted are these: 15 min postadministration. Here is the method: To gain insight into the in vivo stability of [^11C]-PF-04822163, we performed radiometabolic analysis in the brain and plasma of SD rats (Figure ). At 15 min postadministration of [^11C]-PF-04822163, 95% of [^11C]-PF-04822163 remained unchanged in the brain, while in plasma, 26% remained unchanged.
The radiometabolic analysis was performed following a previous report. After the intravenous injection of [^11C]-PF-04822163, SD rats were sacrificed at 15 min postinjection. Plasma samples were quenched with acetonitrile and centrifuged, and the supernatant was assessed by radio-HPLC. The brain was collected and homogenized and quenched with acetonitrile, and the resulting homogenate was centrifuged. The supernatant was analyzed by radio-HPLC.

The target in a further data set is PDE1A (Homo sapiens, UniProt P54750). The data set is described as follows: PDE1A inhibition. It is filed as biochemical.
The target in data set [5] is T1, PDE1B (Homo sapiens, UniProt Q01064). Briefly: PDE1B inhibition. It is filed as biochemical.
A further data set addresses PDE1C (Homo sapiens, UniProt Q14123). The data set is described as follows: PDE1C inhibition. The class given is biochemical.
The target in a further data set is PDE10A (Homo sapiens, UniProt Q9Y233). The data set is described as follows: Potency toward other PDEs (PDE10A). The class given is biochemical.
Data set [6] is described as follows: Log D by shake flask method (n-octanol/PBS). The class given is physicochemical. The conditions noted are these: measured with [11C]PF-04822163. How it is done: (§1) Furthermore, we investigated the off-target binding of PF-04822163 in vitro against 65 major CNS targets, including ion channels, transporters, and GPCR enzymes (Figure S2 in the Supporting Information, supported by the NIMH Psychoactive Drug Screening Program (PDSP)).
The measurement of log D was performed as previously reported. In brief, [^11C]-PF-04822163, n-octanol (3 mL), and PBS (1×, 3 mL) were added to a centrifuge tube, and vortexing was conducted for 3 min followed by centrifugation (∼14,000 rpm) for 5 min. PBS (around 500 μL) and n-octanol (around 50 μL) were then weighted and measured by a gamma counter.

The test system of data set [7] is 65 major CNS targets, including ion channels, transporters, and GPCR enzymes. The data set is described as follows: Off-target binding screen against 65 major CNS targets (NIMH PDSP). The conditions noted are these: 10 μM testing concentration; except 5-HT2B and 5-HT6.
From the text: as §1
(§2) % Inhibition of Target Activity
(§3) Figure S2. Off-target pharmacological evaluation of compound PF-04822163 against major CNS targets, including common GPCRs, enzymes, ion channels, and transporters: initial screening at a concentration of 10 μM (supported by the NIMH PDSP). All data are […]
(§4) Figure S3. The time-activity-curves (0-60 min) of PET studies with [11C]PF-04822163 in rat brains under baseline and blocking conditions. All data were referred to as mean ± SEM,

Another data set has as its target T2, 5-HT2B (Homo sapiens, UniProt P41595).
T2 construct: NIMH Psychoactive Drug Screening Program (PDSP)
The data set is described as follows: Off-target binding, 5-HT2B (NIMH PDSP).
From the text: as §1, §2, §3, §4

A further data set concerns the target T3, 5-HT6 (Homo sapiens, UniProt P50406).
T3 construct: NIMH Psychoactive Drug Screening Program (PDSP)
The data set is described as follows: Off-target binding, 5-HT6 (NIMH PDSP).
From the text: as §1, §2, §3, §4

The subject of data set [8] is PDE1B. The data set is described as follows: In vitro autoradiography with [11C]PF-04822163 on rat brain sections, blocking. The class given is binding, Sprague–Dawley (SD) rat. The conditions noted are these: blocker 10 μM, [11C]PF-04822163 autoradiography. Here is the method: With the ligand [^11C]-PF-04822163 in hand, in vitro autoradiography studies were conducted on Sprague–Dawley (SD) rat brain sections to validate its binding specificity toward PDE1. […] In the autoradiography studies on the coronal brain sections, high radioactivity levels were found in the caudate putamen, nucleus accumbens, and olfactory tubercle (Figure a,c).
3 In vitro autoradiography studies of [^11C]-PF-04822163 on rat brain sections. (a) Representative images of autoradiography studies with [^11C]-PF-04822163 under baseline and blocking conditions (PF-04822163 or PF-04827736, 10 μM), (b) quantification of autoradiography studies of [^11C]-PF-04822163 on sagittal rat brain sections, and (c) quantification of autoradiography studies of [^11C]-PF-04822163 on coronal rat brain sections. All data are means ± SD, n ≥ 8. Statistical analysis was conducted with Student’s two-tailed t tests, and asterisks indicated the statistical significance as follows: *p < 0.05, **p ≤ 0.01, and ***p ≤ 0.001.
Autoradiography studies were performed according to previous reports. , In brief, the rat brain sections (20 μm) were preincubated with a Tris–HCl buffer (50 mM) at room temperature for 20 min followed by incubation with [^11C]-PF-04822163 (168 Bq/mL). […] The radioactivity values were normalized as a percentage of the radioactivity relative to the control.

The target of data set [9] is T1, PDE1B. The conditions noted are these: introduction, literature value; ref Humphrey et al., 2014; cited from earlier work.

T1 sequence (Q01064 whole entry, species assumed): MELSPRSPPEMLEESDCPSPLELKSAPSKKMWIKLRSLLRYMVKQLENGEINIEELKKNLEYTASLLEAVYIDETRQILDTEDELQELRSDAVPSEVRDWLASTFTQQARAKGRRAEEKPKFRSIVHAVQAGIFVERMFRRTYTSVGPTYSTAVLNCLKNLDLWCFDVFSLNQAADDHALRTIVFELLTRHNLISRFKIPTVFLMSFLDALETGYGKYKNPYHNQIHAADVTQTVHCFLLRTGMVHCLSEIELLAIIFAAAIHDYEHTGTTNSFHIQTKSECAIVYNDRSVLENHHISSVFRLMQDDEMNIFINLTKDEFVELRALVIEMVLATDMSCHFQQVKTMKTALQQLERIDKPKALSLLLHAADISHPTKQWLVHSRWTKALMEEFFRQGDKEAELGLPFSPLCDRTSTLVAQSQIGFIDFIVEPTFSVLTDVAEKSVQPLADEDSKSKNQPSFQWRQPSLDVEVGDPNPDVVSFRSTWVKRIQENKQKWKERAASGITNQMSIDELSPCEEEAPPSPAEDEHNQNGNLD
Chain of PDE1C (Q14123 whole entry, species assumed): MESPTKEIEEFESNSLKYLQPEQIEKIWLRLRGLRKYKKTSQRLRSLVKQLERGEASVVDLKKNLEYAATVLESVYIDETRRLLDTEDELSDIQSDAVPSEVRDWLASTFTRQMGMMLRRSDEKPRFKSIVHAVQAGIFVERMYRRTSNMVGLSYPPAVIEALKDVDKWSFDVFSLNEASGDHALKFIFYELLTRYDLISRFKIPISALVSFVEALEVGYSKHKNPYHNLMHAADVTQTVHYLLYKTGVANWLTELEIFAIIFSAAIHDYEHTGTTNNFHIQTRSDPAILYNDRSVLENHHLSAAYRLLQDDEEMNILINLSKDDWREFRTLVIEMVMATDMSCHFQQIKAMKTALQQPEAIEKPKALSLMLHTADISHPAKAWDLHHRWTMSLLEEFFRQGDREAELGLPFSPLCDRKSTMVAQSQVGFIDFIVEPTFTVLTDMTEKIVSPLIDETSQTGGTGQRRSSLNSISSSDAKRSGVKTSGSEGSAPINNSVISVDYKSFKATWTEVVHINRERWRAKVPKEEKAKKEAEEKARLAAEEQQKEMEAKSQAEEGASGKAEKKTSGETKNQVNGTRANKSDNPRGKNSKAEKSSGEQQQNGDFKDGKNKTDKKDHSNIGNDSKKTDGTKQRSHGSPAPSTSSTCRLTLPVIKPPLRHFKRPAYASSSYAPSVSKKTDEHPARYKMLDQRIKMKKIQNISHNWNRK
Chain of PDE1A (P54750 whole entry, species assumed): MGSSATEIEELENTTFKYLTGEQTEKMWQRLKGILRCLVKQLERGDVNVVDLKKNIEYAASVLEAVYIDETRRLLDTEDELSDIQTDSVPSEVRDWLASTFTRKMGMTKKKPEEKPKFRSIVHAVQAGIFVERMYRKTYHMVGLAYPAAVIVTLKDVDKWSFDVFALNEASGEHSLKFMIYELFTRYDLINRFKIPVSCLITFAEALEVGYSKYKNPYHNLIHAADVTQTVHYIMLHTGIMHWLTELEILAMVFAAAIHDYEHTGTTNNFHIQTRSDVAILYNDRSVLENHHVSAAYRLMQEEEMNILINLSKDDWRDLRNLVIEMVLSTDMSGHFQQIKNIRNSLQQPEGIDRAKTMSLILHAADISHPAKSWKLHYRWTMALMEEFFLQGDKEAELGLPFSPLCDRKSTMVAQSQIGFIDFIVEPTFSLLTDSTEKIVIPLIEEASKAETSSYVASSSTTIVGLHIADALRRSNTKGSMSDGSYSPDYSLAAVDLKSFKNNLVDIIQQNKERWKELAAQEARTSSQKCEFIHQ
T3 sequence (P50406 whole entry): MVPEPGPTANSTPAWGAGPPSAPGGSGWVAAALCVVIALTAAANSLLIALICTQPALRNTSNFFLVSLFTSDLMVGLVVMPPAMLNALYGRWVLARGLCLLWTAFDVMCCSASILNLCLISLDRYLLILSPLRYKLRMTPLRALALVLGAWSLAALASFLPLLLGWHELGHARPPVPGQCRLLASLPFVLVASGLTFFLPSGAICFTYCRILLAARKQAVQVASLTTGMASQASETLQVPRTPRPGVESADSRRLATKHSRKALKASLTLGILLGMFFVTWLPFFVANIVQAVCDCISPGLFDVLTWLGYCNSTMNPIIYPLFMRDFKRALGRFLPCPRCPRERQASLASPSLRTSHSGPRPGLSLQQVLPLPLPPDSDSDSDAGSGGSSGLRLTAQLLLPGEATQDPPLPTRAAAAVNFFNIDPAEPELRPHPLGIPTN
T2 sequence (P41595 whole entry): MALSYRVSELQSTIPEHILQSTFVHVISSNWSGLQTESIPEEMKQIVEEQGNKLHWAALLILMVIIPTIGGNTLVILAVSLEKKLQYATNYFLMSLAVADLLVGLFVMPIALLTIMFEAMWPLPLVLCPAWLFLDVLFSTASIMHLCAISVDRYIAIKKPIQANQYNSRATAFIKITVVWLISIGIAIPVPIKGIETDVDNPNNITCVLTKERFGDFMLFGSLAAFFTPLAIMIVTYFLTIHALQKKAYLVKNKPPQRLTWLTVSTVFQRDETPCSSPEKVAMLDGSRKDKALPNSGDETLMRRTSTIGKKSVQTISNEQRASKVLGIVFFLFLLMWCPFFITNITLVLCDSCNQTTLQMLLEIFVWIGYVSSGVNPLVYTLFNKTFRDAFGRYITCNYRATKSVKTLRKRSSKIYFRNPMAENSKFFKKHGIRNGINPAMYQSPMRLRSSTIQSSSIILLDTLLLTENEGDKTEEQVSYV
Chain of PDE10A (Q9Y233 whole entry, species assumed): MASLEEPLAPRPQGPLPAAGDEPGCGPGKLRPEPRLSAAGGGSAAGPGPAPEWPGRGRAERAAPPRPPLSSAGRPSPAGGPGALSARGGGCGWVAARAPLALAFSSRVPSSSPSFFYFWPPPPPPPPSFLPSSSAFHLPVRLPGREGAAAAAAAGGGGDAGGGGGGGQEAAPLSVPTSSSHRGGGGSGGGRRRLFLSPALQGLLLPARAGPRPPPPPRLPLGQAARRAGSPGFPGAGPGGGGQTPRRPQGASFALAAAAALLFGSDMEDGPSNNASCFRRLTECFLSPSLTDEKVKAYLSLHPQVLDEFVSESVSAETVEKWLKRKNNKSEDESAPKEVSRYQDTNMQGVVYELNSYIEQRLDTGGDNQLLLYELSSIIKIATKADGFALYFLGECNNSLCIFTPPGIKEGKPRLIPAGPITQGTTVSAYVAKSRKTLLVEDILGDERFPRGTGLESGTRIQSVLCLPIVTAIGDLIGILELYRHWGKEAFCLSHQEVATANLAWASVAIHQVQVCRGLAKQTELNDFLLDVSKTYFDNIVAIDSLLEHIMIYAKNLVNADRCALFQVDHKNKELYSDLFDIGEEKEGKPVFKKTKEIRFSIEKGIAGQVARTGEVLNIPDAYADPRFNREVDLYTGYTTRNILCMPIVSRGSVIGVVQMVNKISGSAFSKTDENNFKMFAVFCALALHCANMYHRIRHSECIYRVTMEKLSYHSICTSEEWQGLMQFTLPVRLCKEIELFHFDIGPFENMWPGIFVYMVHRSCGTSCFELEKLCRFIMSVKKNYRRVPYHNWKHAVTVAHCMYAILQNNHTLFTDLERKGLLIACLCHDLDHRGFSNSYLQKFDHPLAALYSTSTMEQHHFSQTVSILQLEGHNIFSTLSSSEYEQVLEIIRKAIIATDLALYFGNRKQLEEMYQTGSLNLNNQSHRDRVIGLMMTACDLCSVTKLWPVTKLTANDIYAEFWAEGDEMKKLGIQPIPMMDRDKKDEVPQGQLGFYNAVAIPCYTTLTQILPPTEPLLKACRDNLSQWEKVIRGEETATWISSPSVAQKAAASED

In the case of `CN1C(=O)c2c(nn(Cc3ccc(-c4cccc(F)n4)cc3)c2Nc2ccccc2)N2C1=N[C@@H]1CCC[C@@H]12` [ITI-214], the “selectivity over other PDEs” value in the data set on PDE1 [1] (PDE1 over other PDEs, ref Li et al., 2016) is listed as more than 1000 fold. For the same molecule, the IC50 with PDE1 [1] (ref Li et al., 2016) was 0.058 nM.

Regarding `CCOC(=O)C1=C[C@]2(CC)CCCN3CCc4c(n1c1ccccc41)[C@@H]32` [Vinpocetine], the half-maximal inhibitory concentration (IC50) with PDE1 [1] is 30000 nM.

Turning to `COc1c(O[11CH3])ccc2c([C@H]3CCc4ccc(Cl)cc43)ncnc12` [[^11C]PF-04822163], the SUVmax in the data set with PDE1 [2] (striatum, 3 min post-tracer administration, baseline) was 2.0. The uptake in data set [3] (at 1 and 5 min, heart, lung, liver, kidney, adrenal, and brain) is on record as not below 3 % ID/g. In addition, in data set [3] (at 60 min), the liver uptake is given as 5 % ID/g. For the same molecule, the “remained unchanged in the brain” value in data set [4] (rat brain) came out at 95%. Moreover, the “remained unchanged in plasma” value in data set [4] (rat plasma) was 26%.

For `COc1ccc2c([C@H]3CCc4ccc(Cl)cc43)ncnc2c1OC` [PF-04822163, (S)-4-(6-Chloro-2,3-dihydro-1H-inden-1-yl)-7,8-dimethoxyquinazoline], the melting point lay within 122 to 124 °C. Besides, at PDE1A, the midpoint of inhibition, the IC50, lay at 2 nM and the “selectivity over other PDEs for PDE1A” value is reported as 126 fold. At PDE1B [5], the IC50 was determined as 2.4 nM and the “selectivity over other PDEs for PDE1B” value came to 105 fold. Besides, on PDE1C, inhibition was half-maximal at 7 nM (IC50) and the “selectivity over other PDEs for PDE1C” value is listed as 36 fold. Further, the IC50 against PDE10A was found to be 252 nM. This molecule yielded a pH-dependent lipophilicity (logD) in [6] of 2.53. The “off-target binding (>50% inhibition)” value in [7] was “no significant off-target binding”. In addition, on 5-HT2B, the affinity, expressed as Ki, was 262 nM. For the same molecule, the affinity at 5-HT6 corresponds to a Ki of 4860 nM. For the same molecule, the “decrease in radioactivity signal in PDE1B-rich regions” value in the data set with PDE1B [8] was 47–71%. The “reduction in uptake (AUC) in different brain regions” value in the data set on PDE1 [2] (pretreatment with unlabeled blocker 1 mg/kg, 10 min before [11C]PF-04822163, AUC 0–20 min) is reported as 7–12%. On PDE1B [9], the “selectivity over other PDEs” value was more than 100 fold.
